Experimental findings from patent publication US11084805B2, “Compound derived from allulose” (CJ CHEILJEDANG CORPORATION, priority 2019, dated 2021) are described below.

This series can be described thus: Evaluation of acid resistance of allulose disaccharide (residual percentage by HPLC after storage in citrate buffer). The series is classed as physicochemical. The settings on record: for Residual percentage: 1% (w/v) in 10 mM citrate buffer. How it is done:
1% D1 solution was prepared (in 10 mM citrate buffer) to measure acid resistance thereof. Sucrose that is a disaccharide having a similar structure and D2 that is another allulose disaccharide were used as controls.
The pH of the solution was adjusted to pH 2.0, 4.0, and 6.0 using 10 mM citrate and sodium citrate buffers. The prepared solutions were respectively stored at room temperature ([…]), and purities of remaining substances were identified by HPLC analysis (HPX-87C column, 80° C., 60 min, 20 μl) at 0 hour, 24 hours, 72 hours, and 120 hours. The concentration of each substance was 1% (w/v) and reaction temperature was 40° C.
Those results which show statistically significant difference under the same experimental conditions were indicated by different alphabets.
The measured results with respect to storage time were analyzed using analysis of variance (ANOVA) as statistical analysis and tukey's multiple range test as post hoc analysis, and statistical significance was set to p<0.05.

Regarding `OCC1(O)O[C@H](CO[C@]2(CO)OC[C@@H](O)[C@@H](O)[C@H]2O)[C@@H](O)[C@H]1O` (stereo partly drawn) [D1, (2S,3R,4R,5R)-2-(hydroxymethyl)-2-(((2R,3S,4R)-3,4,5-trihydroxy-5-(hydroxymethyl)tetrahydrofuran-2-yl)methoxy)tetrahydro-2H-pyran-3,4,5-triol], the “Acid resistance compared with D2 and sucrose” value (at pH 6 or less) is “higher acid resistance than that of D2 and sucrose”. Also, the Residual percentage reads like this: (pH 2, 40° C., 0 hr) 100.0%; (pH 2, 40° C., 24 hr) 85.9^A %; (pH 2, 40° C., 72 hr) 58.2^A %; (pH 2, 40° C., 120 hr) 44.6^A %; (pH 4, 40° C., 0 hr) 100.0%; (pH 4, 40° C., 24 hr) 99.0^A %. The Residual percentage (pH 4, 40° C., 72 hr) is listed as 98.8^A %; the Residual percentage (pH 4, 40° C., 120 hr) is given as 97.9^A %; the Residual percentage (pH 6, 40° C., 0 hr) was 100.0%; the Residual percentage (pH 6, 40° C., 24 hr) was 100.0%; the Residual percentage (pH 6, 40° C., 72 hr) is on record as 100.0%; the Residual percentage (pH 6, 40° C., 120 hr) is recorded as 99.96^A* %. The “Residual percentage of D1 relative to that of sucrose (higher than)” value (pH 2, after 120 hours) is recorded as “about 130%”.

With `OC[C@H]1O[C@@](CO)(O[C@H]2O[C@H](CO)[C@@H](O)[C@H](O)[C@H]2O)[C@@H](O)[C@@H]1O` [Sucrose, reference compound], the Residual percentage by setting is: (pH 2, 40° C., 0 hr) 100.0%; (pH 2, 40° C., 24 hr) 81.2^B %; (pH 2, 40° C., 72 hr) 51.9^B %; (pH 2, 40° C., 120 hr) 34.4^B %; (pH 4, 40° C., 0 hr) 100.0%; (pH 4, 40° C., 24 hr) 98.1^A %. Besides, the Residual percentage (pH 4, 40° C., 72 hr) is reported as 95.8^B %; the Residual percentage (pH 4, 40° C., 120 hr) is listed as 92.9^B %; the Residual percentage (pH 6, 40° C., 0 hr) came out at 100.0%; the Residual percentage (pH 6, 40° C., 24 hr) was 100.0%; the Residual percentage (pH 6, 40° C., 72 hr) was determined as 99.9%; the Residual percentage (pH 6, 40° C., 120 hr) is 99.58^A* %.
